Reference: US20190351012A1, “TARGETING OF INTERFERON-STIMULATED GENE EXPRESSION TO TREAT INTERFERONOPATHIES” (New York University, priority 2018, published 2019)

Columns and labels:
[1] = system: BRD4 at ISG56, Mx1 and IRF9 TSS; assay: ChIP-qPCR for BRD4 at ISG promoters in HeLa cells; format: cell-based, human; details: 1 h IFN stimulation
Experimental: FIG. 5. BRD4 is required for ISG transcription. (A) HeLa cells were either left untreated or treated with IFN-α for 1 h in presence or absence of JQ-1 or HMBA. Using primers spanning intron-exon junctions, nuclear pre-mRNA for ISG54 and γ-actin were quantified by real-time RT-PCR and normalized to GAPDH mRNA. (B) Control and BRD4 KD cells were either left untreated or treated with IFN-α. ISG56 and BRD4 mRNA were quantified using real-time RT-PCR and normalized to GAPDH mRNA abundance. (C) HEK293T cells were transfected with pcDNA3 (Ctl) or Brd4 expression constructs along with a luciferase reporter driven by the ISG54 promoter. 24 h after transfection, cells were either left untreated or treated with IFN-α in the absence or presence of TSA before being assayed for luciferase activity (left panel). […] Nuclear proteins were extracted as a soluble fraction and a chromatin bound fraction and analyzed by western blotting using anti-BRD4, H4-AcK5 and actin antibodies. […] (F) ChIP assays were performed with antibodies against BRD4 and recovered ISG56, Mx1 and IRF9 TSS spanning sequences were quantified by real-time PCR, normalized to input, and represented as fold enrichment over the untreated sample. […]
Chromatin immunoprecipitation was performed as follows. […] Immunoprecipitated DNA sequences were recovered by alcohol precipitation and quantified by real-time PCR compared with input genomic DNA. […]

[2] = system: ISG54 promoter activity in HEK293T cells; assay: ISG54 promoter luciferase reporter in HEK293T cells; format: cell-based, human
Experimental: FIG. 5. BRD4 is required for ISG transcription. (A) HeLa cells were either left untreated or treated with IFN-α for 1 h in presence or absence of JQ-1 or HMBA. Using primers spanning intron-exon junctions, nuclear pre-mRNA for ISG54 and γ-actin were quantified by real-time RT-PCR and normalized to GAPDH mRNA. (B) Control and BRD4 KD cells were either left untreated or treated with IFN-α. ISG56 and BRD4 mRNA were quantified using real-time RT-PCR and normalized to GAPDH mRNA abundance. (C) HEK293T cells were transfected with pcDNA3 (Ctl) or Brd4 expression constructs along with a luciferase reporter driven by the ISG54 promoter. […] Nuclear proteins were extracted as a soluble fraction and a chromatin bound fraction and analyzed by western blotting using anti-BRD4, H4-AcK5 and actin antibodies. […] (F) ChIP assays were performed with antibodies against BRD4 and recovered ISG56, Mx1 and IRF9 TSS spanning sequences were quantified by real-time PCR, normalized to input, and represented as fold enrichment over the untreated sample.
It has been shown that BRD4 coordinates the recruitment of P-TEFb to regulate transcription of target genes, including ISGs. […] In order to focus on transcriptional events, we again monitored induction of ISG unspliced pre-mRNA. […]
Nuclear extracts were prepared and analyzed by immunoblotting as follows. […]

CC(/C=C/C(=O)NO)=C\[C@@H](C)C(=O)c1ccc(N(C)C)cc1 [TSA, Trichostatin A]
IFN-induced BRD4 recruitment to ISG promoters [1]: abrogated
IFN-driven ISG54 promoter activity (luciferase) ([2]; HEK293T cells): completely suppressed
Brd4-driven ISG54 promoter expression (luciferase) ([2]; HEK293T cells overexpressing Brd4, with or without TSA and IFN): No significant differences
